# Test results as given in article PMC7504216 (Molecules, 2020).
# Where two headings read alike, the source gives them in different places.
# Key:
# [1] = system: BChE; settings: cited from earlier work
# [2] = molecular target: T1, BChE from equine serum (Equus caballus, UniProt P81908); experiment: BChE inhibition assay (Ellman, BTCI) and kinetics; format: biochemical
# T1 construct: BChE from equine serum; purchased Sigma-Aldrich; host or cells: equine serum
# [3] = molecular target: T2, recombinant human MAO-B (Homo sapiens, UniProt P27338); experiment: Reversibility of MAO-B inhibition by dialysis; format: biochemical
# T2 construct: purchased Sigma-Aldrich
# T2 sequence (P27338 1-520): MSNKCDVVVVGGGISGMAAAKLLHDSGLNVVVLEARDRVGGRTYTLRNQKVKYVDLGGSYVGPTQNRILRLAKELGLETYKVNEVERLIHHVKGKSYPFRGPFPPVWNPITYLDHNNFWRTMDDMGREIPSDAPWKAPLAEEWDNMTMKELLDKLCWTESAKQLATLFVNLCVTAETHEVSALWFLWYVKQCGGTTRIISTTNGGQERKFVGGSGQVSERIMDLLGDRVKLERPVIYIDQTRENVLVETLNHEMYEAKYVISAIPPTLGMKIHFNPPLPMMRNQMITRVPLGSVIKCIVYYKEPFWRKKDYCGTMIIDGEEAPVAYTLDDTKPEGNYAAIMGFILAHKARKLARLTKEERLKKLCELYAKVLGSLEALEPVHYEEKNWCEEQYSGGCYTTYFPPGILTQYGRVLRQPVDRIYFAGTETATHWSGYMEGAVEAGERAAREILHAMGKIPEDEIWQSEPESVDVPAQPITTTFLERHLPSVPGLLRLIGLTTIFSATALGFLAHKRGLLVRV
# [4] = molecular target: T3, AChE from Electrophorus electricus (Electrophorus electricus, UniProt O42275); experiment: AChE inhibition assay (Ellman, ATCI); format: biochemical
# T3 construct: purchased Sigma-Aldrich
# T3 sequence (O42275 24-633): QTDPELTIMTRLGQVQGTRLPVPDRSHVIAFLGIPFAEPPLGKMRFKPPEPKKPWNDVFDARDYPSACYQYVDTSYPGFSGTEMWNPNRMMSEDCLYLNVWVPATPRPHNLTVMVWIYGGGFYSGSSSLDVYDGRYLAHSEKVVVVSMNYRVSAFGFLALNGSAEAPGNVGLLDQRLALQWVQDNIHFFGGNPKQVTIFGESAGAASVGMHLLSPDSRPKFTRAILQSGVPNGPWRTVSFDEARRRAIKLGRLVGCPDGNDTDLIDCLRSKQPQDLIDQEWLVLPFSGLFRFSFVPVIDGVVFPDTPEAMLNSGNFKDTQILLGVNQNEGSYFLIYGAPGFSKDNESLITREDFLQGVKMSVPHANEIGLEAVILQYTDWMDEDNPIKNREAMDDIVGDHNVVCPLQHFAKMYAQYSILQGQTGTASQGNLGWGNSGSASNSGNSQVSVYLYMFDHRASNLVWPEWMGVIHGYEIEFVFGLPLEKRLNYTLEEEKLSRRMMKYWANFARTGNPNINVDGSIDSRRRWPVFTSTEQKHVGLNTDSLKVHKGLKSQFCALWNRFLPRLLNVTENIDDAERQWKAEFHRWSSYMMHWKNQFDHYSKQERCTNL
# [5] = molecular target: T4, recombinant human MAO-A (Homo sapiens, UniProt P21397); experiment: biochemical; format: biochemical
# T4 construct: purchased Sigma-Aldrich
# T4 sequence (P21397 1-527): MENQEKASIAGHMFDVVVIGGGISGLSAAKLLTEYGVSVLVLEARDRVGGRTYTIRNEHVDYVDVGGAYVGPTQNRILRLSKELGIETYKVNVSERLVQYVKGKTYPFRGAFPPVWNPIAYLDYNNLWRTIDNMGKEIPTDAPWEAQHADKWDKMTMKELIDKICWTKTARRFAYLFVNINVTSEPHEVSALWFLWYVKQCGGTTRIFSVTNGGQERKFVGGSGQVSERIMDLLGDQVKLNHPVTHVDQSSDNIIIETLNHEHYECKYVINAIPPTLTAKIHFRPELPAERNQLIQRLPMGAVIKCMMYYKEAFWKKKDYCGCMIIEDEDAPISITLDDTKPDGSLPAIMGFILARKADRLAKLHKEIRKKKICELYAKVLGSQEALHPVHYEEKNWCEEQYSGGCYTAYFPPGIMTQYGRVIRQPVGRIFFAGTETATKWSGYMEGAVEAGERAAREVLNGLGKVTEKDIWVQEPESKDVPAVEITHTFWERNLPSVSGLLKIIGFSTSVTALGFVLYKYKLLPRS
# [6] = molecular target: T2, recombinant human MAO-B; experiment: biochemical; format: biochemical
# [7] = system: AChE; settings: cited from earlier work
# [8] = inhibitor 10 µM, mean ± SE, triplicate
# T1 sequence (P81908 whole entry): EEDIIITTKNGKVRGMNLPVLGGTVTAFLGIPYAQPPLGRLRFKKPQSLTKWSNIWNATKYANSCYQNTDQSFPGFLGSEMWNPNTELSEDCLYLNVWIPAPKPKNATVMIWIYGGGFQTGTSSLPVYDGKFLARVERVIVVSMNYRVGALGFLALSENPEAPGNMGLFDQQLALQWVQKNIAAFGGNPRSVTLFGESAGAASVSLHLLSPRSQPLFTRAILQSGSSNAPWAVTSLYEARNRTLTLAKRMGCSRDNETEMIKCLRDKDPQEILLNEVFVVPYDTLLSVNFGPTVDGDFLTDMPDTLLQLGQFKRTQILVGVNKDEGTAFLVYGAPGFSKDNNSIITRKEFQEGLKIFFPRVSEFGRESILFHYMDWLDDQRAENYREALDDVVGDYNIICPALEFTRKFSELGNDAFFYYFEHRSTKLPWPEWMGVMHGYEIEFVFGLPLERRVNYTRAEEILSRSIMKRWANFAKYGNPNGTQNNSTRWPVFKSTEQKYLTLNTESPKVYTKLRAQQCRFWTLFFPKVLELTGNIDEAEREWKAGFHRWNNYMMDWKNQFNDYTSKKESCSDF
molecule,measurement,setting,value
cremaphenanthrene F,IC50,[1],14.6 µM
"O=C1C[C@@H](c2ccc(O)cc2)Oc2cc(O)ccc21 [LG, Liquiritigenin]",IC50,[2],> 40 µM
same,remaining activity at 10 µM,[2]; read-out: Residual Activity at 10 µM (%) BChE,82.5 ± 0.26%
same,reversibility of MAO-B inhibition,[3],reversibly inhibited
same,IC50,[4],> 40 µM
same,remaining activity at 10 µM,[4]; read-out: Residual Activity at 10 µM (%) AChE,95.3 ± 3.59%
same,IC50,[5],0.27 ± 0.041 µM
same,remaining activity at 10 µM,[5]; read-out: Residual Activity at 10 µM (%) MAO-A,0.46 ± 1.6%
same,mode of MAO-B inhibition,[6]; Lineweaver-Burk plots,reversible competitive inhibitor
same,remaining activity at 10 µM,[6]; read-out: Residual Activity at 10 µM (%) MAO-B,0%
COc1c(OC)c2occc2c2oc(=O)ccc12 [pimpinellin],BChE inhibition,"[1]; 25 μg/mL (sphondin 115.7 μM, pimpinellin 101.5 μM), from Heracleum platytaenium",78.02%
sagachromanol I,IC50,[1],10.8 µM
COc1c2occc2cc2ccc(=O)oc12 [xanthotoxin],IC50,[7]; from Ferula lutea,0.76 µM
CC(C)=CCc1c(O)ccc2ccc(=O)oc12 [osthenol],IC50,[7]; from Angelica pubescens,25.3 µM
CCC(C)C(=O)c1c(O)c2c(c3c(-c4ccccc4)cc(=O)oc13)OC(C)(CCC=C(C)C)C=C2 (centres unmarked) [mesuagenin B],IC50,[7]; from Mesua elegans,0.7 µM
CC(C)=CCC[C@]1(C)[C@@H](CC=C(C)C)C[C@@]2(CC=C(C)C)C(=O)[C@]1(C(=O)C(C)C)C(=O)C(CC=C(C)C)=C2O [hyperforin],IC50,[1],142 µM
COc1cc2ccc(=O)oc2cc1O [scopoletin],IC50,[1],9.11 µM
COc1ccc([C@@H]2CC(=O)c3c(O)cc(O[C@@H]4O[C@H](CO[C@@H]5O[C@@H](C)[C@H](O)[C@@H](O)[C@H]5O)[C@@H](O)[C@H](O)[C@H]4O)cc3O2)cc1O [hesperidin],IC50,[7],0.00345 µM
"CC(=O)O[C@@H]1CCC(C)(C)c2ccc3c(c21)C(=O)C(=O)C1=C3OC[C@@H]1C [(1R,15R)-1-acetoxycryptotanshinone]",IC50,[1],2.4 µM
liquiritin apioside,Residual Activity at 10 µM (%) BChE,[2]; [8],97.6 ± 0.93%
same,Residual Activity at 10 µM (%) AChE,[4]; [8],63.5 ± 2.56%
same,Residual Activity at 10 µM (%) MAO-A,[5]; [8],86.9 ± 2.41%
same,Residual Activity at 10 µM (%) MAO-B,[6]; [8],94.8 ± 0.57%
